According to paper PMC9596378, “Discovery and molecular basis of subtype-selective cyclophilin inhibitors” (Nature Chemical Biology, 2022):
pIC50: −log10 of the molar value. “And” between values parts separate entries of the source, which are not always exact repeats. Identical values can stand only once. Like-named read-outs stand apart in the source and are kept apart here. Blank lines part the entries; values can stand above or below the compound they belong to.

Key:
CypD = CypD (Homo sapiens, UniProt P30405); test: Chymotrypsin coupled prolyl-isomerase assay; conditions: for prolyl-isomerase activity (raw dose-response value): CypD
Cyp40 = Cyp40 (Homo sapiens, UniProt Q08752); test: Chymotrypsin coupled prolyl-isomerase assay; conditions: for prolyl-isomerase activity (raw dose-response value): in s^-1
Protocol: Adapting a previously described protocol, with an Agilent Bravo Velocity 11 with a 384ST head, 90 µL assay buffer (25 mM HEPES pH 7.3, 100 mM NaCl, 0.01% Triton X-100) containing 5.28 nM cyclophilin was added into a flat, clear-bottom, black 384-well plate pre-chilled in a Corning CoolBox at 2–3 °C. Five microliters of compound pre-dissolved in 5% DMSO/assay buffer was then added to appropriate wells and incubated at 2–3 °C for 5 min. Five microliters of 0.5 mM α-chymotrypsin from bovine pancreas (Type II, lyophilized powder, Millipore-Sigma) in 20% 1 mM HCl/Assay Buffer was then added to each well and incubated at 2–3 °C for 5 min. The plate was then quickly transferred to a FLIPR Tetra High-Throughput Cellular Screening System (Molecular Devices). Using the internal liquid handling system of the FLIPR, 1 µL 0.5 mM Suc-AAPF-AMC (Chymotrypsin Substrate II, Millipore-Sigma) dissolved in 0.55 M LiCl/2,2,2-trifluoroethanol was added to each well, which was then mixed for 5 s, followed by immediate fluorescence measurements every 1 s for 330 s using a 360–380 nm excitation LED module and a 400–460 nm emission filter. Final concentrations of the plate include 5 nM cyclophilin, 0.25% DMSO, 25 µM α-chymotrypsin, 5 µM Suc-AAPF-AMC. Raw fluorescence data was analyzed by non-linear regression analysis with Prism v.9 by fitting one-phase association curves to each well. […] Rate constants calculated for each well (s^−1) were then normalized to substrate only (no prolyl-isomerase) and enzyme + substrate only controls. IC50 values were calculated as the value at which 50% inhibition was achieved on the non-linear regression fitted curve of each compound.

PPWD1 = molecular target: T1, PPWD1 (Homo sapiens, UniProt Q96BP3); test: Chymotrypsin coupled prolyl-isomerase assay; type: biochemical; conditions: for pIC50: wild-type PPWD1, read-out: Wild-Type Cyclophilin Prolyl Isomerase Inhibition IC50 Values, PPWD1; for prolyl-isomerase activity (raw dose-response value): in s^-1
T1 construct: PPWD1 (UniProtKB Entry Q96BP3: residues 473–646); host or cells: E. coli BL21(DE3)
T1 sequence (Q96BP3 473-646): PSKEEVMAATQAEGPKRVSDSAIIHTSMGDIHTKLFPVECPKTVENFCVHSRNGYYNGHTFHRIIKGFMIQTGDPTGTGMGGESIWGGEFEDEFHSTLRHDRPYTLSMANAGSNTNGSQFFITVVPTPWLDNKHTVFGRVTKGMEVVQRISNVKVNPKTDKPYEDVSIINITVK
Protocol: Five microliters of compound pre-dissolved in 5% DMSO/assay buffer was then added to appropriate wells and incubated at 2–3 °C for 5 min. Five microliters of 0.5 mM α-chymotrypsin from bovine pancreas (Type II, lyophilized powder, Millipore-Sigma) in 20% 1 mM HCl/Assay Buffer was then added to each well and incubated at 2–3 °C for 5 min. The plate was then quickly transferred to a FLIPR Tetra High-Throughput Cellular Screening System (Molecular Devices). Using the internal liquid handling system of the FLIPR, 1 µL 0.5 mM Suc-AAPF-AMC (Chymotrypsin Substrate II, Millipore-Sigma) dissolved in 0.55 M LiCl/2,2,2-trifluoroethanol was added to each well, which was then mixed for 5 s, followed by immediate fluorescence measurements every 1 s for 330 s using a 360–380 nm excitation LED module and a 400–460 nm emission filter. […] Raw fluorescence data was analyzed by non-linear regression analysis with Prism v.9 by fitting one-phase association curves to each well. Analyses were halted after the calculated maximum fluorescent value owing to observed fluorescent bleaching during the sustained fluorescent plateau. Rate constants calculated for each well (s^−1) were then normalized to substrate only (no prolyl-isomerase) and enzyme + substrate only controls.

HeLa cells = test: Fluorescence microscopy of Cy5-conjugated compounds; type: cell-based, human
Protocol: Cells were seeded into 96-well, black, clear-bottom, TC-treated plates, in DMEM supplemented with 10% FBS 24 h prior at a density where wells were ~80% confluent at the time of the experiment. Medium was removed and cells were then stained with 50 µL mixture containing Cy5-labeled compound (6 µM) in Kreb’s ringer solution HEPES buffered pH 7.2 (KRB), for 1 h at 37 °C. Then, 50 µL Hoechst 33342 (8 µM) and Mitotracker Green FM (0.1 µM) in KRB was added directly to wells containing cells and incubated for 15 min at 37 °C. Medium was removed and cells were washed twice with 100 µL KRB. Cells were then kept adherent to the wells in 100 µL KRB for imaging. Fluorescence microscopy was conducted on an Opera Phenix Plus High-Content Screening System, using Alexa 488, Alexa 647, and Hoescht 33342 channels. Images were analyzed using Harmony v.4.9.

[1] = read-out: Wild-Type Cyclophilin Prolyl Isomerase Inhibition IC50 Values, CypD, wild-type CypD
[2] = read-out: Wild-Type Cyclophilin Prolyl Isomerase Inhibition IC50 Values, Cyp40, wild-type Cyp40

Sequence of Cyp40 (Q08752 1-183): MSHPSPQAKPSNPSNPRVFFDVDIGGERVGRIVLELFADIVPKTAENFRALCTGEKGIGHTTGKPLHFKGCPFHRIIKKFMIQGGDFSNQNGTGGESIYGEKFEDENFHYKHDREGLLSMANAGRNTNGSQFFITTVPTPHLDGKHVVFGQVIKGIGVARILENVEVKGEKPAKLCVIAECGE
Sequence of CypD (P30405 45-207): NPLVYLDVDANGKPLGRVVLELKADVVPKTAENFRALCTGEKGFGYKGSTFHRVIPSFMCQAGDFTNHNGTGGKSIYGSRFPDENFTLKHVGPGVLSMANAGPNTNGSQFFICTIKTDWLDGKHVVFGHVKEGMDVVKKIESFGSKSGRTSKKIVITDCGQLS

- CypD prolyl-isomerase inhibition (in words) (CypD): do not inhibit CypD in vitro
- pIC50 (CypD; [1]): < 5.00
- pIC50 (Cyp40; [2]): < 5.00
- pIC50 (PPWD1): < 5.00
- plasma membrane permeability / mitochondrial localization (in words) (HeLa cells): poor
SMILES: C[N+]1=C(C=CC=CC=C2N(CCCCCC(=O)NCCNC(=O)C3CCNC(=O)C=CC(=O)N4CCCC(Cc5ccccc5)(C4)C(=O)NC(Cc4ccc(-c5ccc(CC(C(=O)O)C(=O)O)cc5)cc4)C(=O)NCc4ccccc4CC(=O)N3)c3ccccc3C2(C)C)C(C)(C)c2ccccc21 (stereo not drawn) [*B52-Cy5]

- pIC50 (CypD; [1]): 7.54
- pIC50 (Cyp40; [2]): < 5.70
- pIC50 (PPWD1): < 5.70
SMILES: C[N+]1=C(C=CC=CC=C2N(CCCCCC(=O)NCCNC(=O)C3CCNC(=O)C=CC(=O)N4CCCC(Cc5ccccc5)(C4)C(=O)NC(Cc4ccc(-c5ccc(C(CC(=O)O)CC(=O)O)cc5)cc4)C(=O)NCc4ccccc4CC(=O)N3)c3ccccc3C2(C)C)C(C)(C)c2ccccc21 (stereo not drawn) [Compound B53-Cy5]
- plasma membrane permeability / mitochondrial localization (in words) (HeLa cells): poor and did not observe efficient plasma membrane permeability

- pIC50 (CypD; [1]): 8.15
- pIC50 (Cyp40; [2]): < 5.00
- pIC50 (PPWD1): < 5.00
SMILES: C[N+]1=C(C=CC=CC=C2N(CCCCCC(=O)NCCNC(=O)C3CCNC(=O)C=CC(=O)N4CCCC(Cc5ccccc5)(C4)C(=O)NC(Cc4ccc(-c5ccc(CC(C(=O)O)C(=O)O)cc5)cc4)C(=O)NCc4ccccc4CC(=O)N3)c3ccccc3C2(C)C)C(C)(C)c2ccccc21 (stereo not drawn) [Compound B52-Cy5]
- plasma membrane permeability / mitochondrial localization (in words) (HeLa cells): poor and did not observe efficient plasma membrane permeability

Second part, the compound before the results:

SMILES: C[N+]1=C(C=CC=CC=C2N(CCCCCC(=O)NCCNC(=O)C3CCNC(=O)C=CC(=O)N4CCCC(Cc5ccccc5)(C4)C(=O)NC(Cc4ccc(-c5ccc(C(CC(=O)O)CC(=O)O)cc5)cc4)C(=O)NCc4ccccc4CC(=O)N3)c3ccccc3C2(C)C)C(C)(C)c2ccccc21 (stereo not drawn) [*B53-Cy5]
- CypD prolyl-isomerase inhibition (in words) (CypD): do not inhibit CypD in vitro
- pIC50 (CypD; [1]): < 5.00
- pIC50 (Cyp40; [2]): < 5.00
- pIC50 (PPWD1): < 5.00
- plasma membrane permeability / mitochondrial localization (in words) (HeLa cells): poor

SMILES: NCCOCCNC(=O)[C@@H]1CCNC(=O)/C=C/C(=O)N2CCC[C@](Cc3ccccc3)(C2)C(=O)N[C@@H](Cc2ccc(C(=O)c3ccccc3)cc2)C(=O)NCc2ccccc2CC(=O)N1 [Compound B1]
- pIC50 (CypD): 7.40
- prolyl-isomerase activity (raw dose-response value) (CypD; dose 0.00244141 µM): 0.1167 and 0.1009 and 0.132
- prolyl-isomerase activity (raw dose-response value) (CypD; dose 0.00488281 µM): 0.1171 and 0.1006 and 0.1105
- prolyl-isomerase activity (raw dose-response value) (CypD; dose 0.00976562 µM): 0.1045 and 0.1074 and 0.1165
- prolyl-isomerase activity (raw dose-response value) (CypD; dose 0.0195312 µM): 0.0977 and 0.1005 and 0.09149
- prolyl-isomerase activity (raw dose-response value) (CypD; dose 0.0390625 µM): 0.07882 and 0.0807 and 0.08119
- prolyl-isomerase activity (raw dose-response value) (CypD; dose 0.078125 µM): 0.05821 and 0.05418 and 0.05518
- prolyl-isomerase activity (raw dose-response value) (CypD; dose 0.15625 µM): 0.03845 and 0.03512 and 0.03854
- prolyl-isomerase activity (raw dose-response value) (CypD; dose 0.3125 µM): 0.0261 and 0.02523 and 0.02516
- prolyl-isomerase activity (raw dose-response value) (CypD; dose 0.625 µM): 0.0197 and 0.01788 and 0.01929
- prolyl-isomerase activity (raw dose-response value) (CypD; dose 1.25 µM): 0.01434 and 0.01347 and 0.01416
- prolyl-isomerase activity (raw dose-response value) (CypD; dose 2.5 µM): 0.009932 and 0.009111 and 0.008108
- prolyl-isomerase activity (raw dose-response value) (Cyp40; Cyp40, dose 0.0228624 µM): 0.05537 and 0.05091 and 0.0526
- prolyl-isomerase activity (raw dose-response value) (Cyp40; Cyp40, dose 0.0685871 µM): 0.04831 and 0.04914 and 0.04761
- prolyl-isomerase activity (raw dose-response value) (Cyp40; Cyp40, dose 0.205761 µM): 0.03428 and 0.03147 and 0.03197
- prolyl-isomerase activity (raw dose-response value) (Cyp40; Cyp40, dose 0.617284 µM): 0.02396 and 0.01982 and 0.02092
- prolyl-isomerase activity (raw dose-response value) (Cyp40; Cyp40, dose 1.85185 µM): 0.01751 and 0.01672 and 0.01432
- prolyl-isomerase activity (raw dose-response value) (Cyp40; Cyp40, dose 5.55556 µM): 0.0143 and 0.01339 and 0.01386
- prolyl-isomerase activity (raw dose-response value) (Cyp40; Cyp40, dose 16.6667 µM): 0.01332 and 0.01439 and 0.01303
- prolyl-isomerase activity (raw dose-response value) (Cyp40; Cyp40, dose 50 µM): 0.01384 and 0.01317 and 0.01466
- pIC50 (Cyp40; Wild-Type Cyclophilin Prolyl Isomerase Inhibition IC50 Values, Cyp40, wild-type Cyp40): 7.30
- prolyl-isomerase activity (raw dose-response value) (PPWD1; PPWD1, dose 0.00244141 µM): 0.05276 and 0.05431 and 0.05271
- prolyl-isomerase activity (raw dose-response value) (PPWD1; PPWD1, dose 0.00488281 µM): 0.05268 and 0.05435 and 0.05318
- prolyl-isomerase activity (raw dose-response value) (PPWD1; PPWD1, dose 0.00976562 µM): 0.05613 and 0.05695 and 0.05468
- prolyl-isomerase activity (raw dose-response value) (PPWD1; PPWD1, dose 0.0195312 µM): 0.05207 and 0.05349 and 0.04937
- prolyl-isomerase activity (raw dose-response value) (PPWD1; PPWD1, dose 0.0390625 µM): 0.05208 and 0.05238 and 0.05082
- prolyl-isomerase activity (raw dose-response value) (PPWD1; PPWD1, dose 0.078125 µM): 0.04871 and 0.04927 and 0.04631
- prolyl-isomerase activity (raw dose-response value) (PPWD1; PPWD1, dose 0.15625 µM): 0.04828 and 0.0525 and 0.04634
- prolyl-isomerase activity (raw dose-response value) (PPWD1; PPWD1, dose 0.3125 µM): 0.04787 and 0.04701 and 0.04264
- prolyl-isomerase activity (raw dose-response value) (PPWD1; PPWD1, dose 0.625 µM): 0.04382 and 0.04097 and 0.03416
- prolyl-isomerase activity (raw dose-response value) (PPWD1; PPWD1, dose 1.25 µM): 0.03009 and 0.02964 and 0.0254
- prolyl-isomerase activity (raw dose-response value) (PPWD1; PPWD1, dose 2.5 µM): 0.02331 and 0.02391 and 0.0225
- pIC50 (PPWD1): 5.85
